Source: ChEMBL document CHEMBL4673207, “Recent advances in the discovery of potent and selective HDAC6 inhibitors” (Eur J Med Chem, 2018)
One block for each molecule: values may come before it.

Key:
[1] = test system: MCF7; experiment: Antiproliferative activity against human MCF7 incubated for 72 hrs by MTT assay; type: functional
[2] = test system: HEK293T; experiment: Selectivity ratio of IC50 for Flag-tagged HDAC1 (unknown origin) expressed in 293T cells to IC50 for Flag-tagged HDAC6 (unknown origin) expressed in 293T cells; type: cell-based; settings: Homo sapiens
[3] = target: T1, Protein deacetylase HDAC6 (Homo sapiens, UniProt Q9UBN7); experiment: Inhibition of Flag-tagged HDAC6 (unknown origin) expressed in 293T cells using ZMAL as substrate incubated for 180 mins by fluorescence method; design: species or system HEK293T
T1 sequence (Q9UBN7 whole entry): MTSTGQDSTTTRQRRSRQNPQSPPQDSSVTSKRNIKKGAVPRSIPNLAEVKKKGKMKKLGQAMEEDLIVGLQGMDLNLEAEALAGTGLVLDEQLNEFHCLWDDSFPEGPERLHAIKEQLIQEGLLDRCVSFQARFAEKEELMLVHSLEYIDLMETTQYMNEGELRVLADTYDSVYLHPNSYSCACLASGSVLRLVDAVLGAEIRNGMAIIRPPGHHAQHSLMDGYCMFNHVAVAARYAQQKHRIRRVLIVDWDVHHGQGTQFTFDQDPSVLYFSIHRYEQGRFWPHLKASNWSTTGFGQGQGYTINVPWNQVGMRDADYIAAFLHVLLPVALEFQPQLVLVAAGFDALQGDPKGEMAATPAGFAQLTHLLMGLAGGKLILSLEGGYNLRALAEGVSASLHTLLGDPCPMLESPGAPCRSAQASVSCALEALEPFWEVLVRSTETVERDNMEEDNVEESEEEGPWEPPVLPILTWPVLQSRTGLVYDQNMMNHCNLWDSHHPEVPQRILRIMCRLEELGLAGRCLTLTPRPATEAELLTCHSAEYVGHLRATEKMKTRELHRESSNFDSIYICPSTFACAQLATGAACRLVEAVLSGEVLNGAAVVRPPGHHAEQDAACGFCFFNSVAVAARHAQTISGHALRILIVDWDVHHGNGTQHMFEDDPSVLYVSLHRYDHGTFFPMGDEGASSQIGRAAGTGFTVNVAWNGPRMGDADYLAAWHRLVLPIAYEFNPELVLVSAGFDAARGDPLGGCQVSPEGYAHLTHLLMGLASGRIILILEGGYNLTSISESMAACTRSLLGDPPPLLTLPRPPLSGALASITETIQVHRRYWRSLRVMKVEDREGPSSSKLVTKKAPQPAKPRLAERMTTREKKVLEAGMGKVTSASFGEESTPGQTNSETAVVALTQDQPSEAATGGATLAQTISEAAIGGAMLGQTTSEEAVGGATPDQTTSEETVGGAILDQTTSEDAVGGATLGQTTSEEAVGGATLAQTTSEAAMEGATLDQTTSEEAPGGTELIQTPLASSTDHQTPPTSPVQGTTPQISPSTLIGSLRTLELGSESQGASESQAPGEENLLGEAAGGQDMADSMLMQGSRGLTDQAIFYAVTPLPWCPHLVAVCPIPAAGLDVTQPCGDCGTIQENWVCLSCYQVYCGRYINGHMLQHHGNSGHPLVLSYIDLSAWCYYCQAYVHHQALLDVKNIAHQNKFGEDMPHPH

[4] = target: T2, Histone deacetylase 1 (Homo sapiens, UniProt Q13547); experiment: Inhibition of Flag-tagged HDAC1 (unknown origin) expressed in 293T cells using ZMAL as substrate incubated for 180 mins by fluorescence method; design: species or system HEK293T
[5] = target: T1, Protein deacetylase HDAC6; experiment: Inhibition of recombinant human HDAC6 expressed in baculovirus infected sf9 cells using fluor-de-Lys-SIRT1 as substrate by fluorescence method
[6] = target: Histone deacetylase 8 (Homo sapiens, UniProt Q9BY41); experiment: Inhibition of human HDAC8 using fluorogenic HDAC substrate incubated for 60 mins by fluorimetry
[7] = target: T3, Histone deacetylase 5 (Homo sapiens, UniProt Q9UQL6); experiment: Inhibition of human HDAC5 using fluorogenic HDAC substrate incubated for 30 mins by fluorimetry
[8] = target: T1, Protein deacetylase HDAC6; experiment: Inhibition of human HDAC6 using fluorogenic HDAC substrate incubated for 30 mins by fluorimetry
[9] = target: T4, Polyamine deacetylase HDAC10 (Homo sapiens, UniProt Q969S8); experiment: Inhibition of human HDAC10 using fluorogenic HDAC substrate incubated for 45 mins by fluorimetry
T4 sequence (Q969S8 whole entry): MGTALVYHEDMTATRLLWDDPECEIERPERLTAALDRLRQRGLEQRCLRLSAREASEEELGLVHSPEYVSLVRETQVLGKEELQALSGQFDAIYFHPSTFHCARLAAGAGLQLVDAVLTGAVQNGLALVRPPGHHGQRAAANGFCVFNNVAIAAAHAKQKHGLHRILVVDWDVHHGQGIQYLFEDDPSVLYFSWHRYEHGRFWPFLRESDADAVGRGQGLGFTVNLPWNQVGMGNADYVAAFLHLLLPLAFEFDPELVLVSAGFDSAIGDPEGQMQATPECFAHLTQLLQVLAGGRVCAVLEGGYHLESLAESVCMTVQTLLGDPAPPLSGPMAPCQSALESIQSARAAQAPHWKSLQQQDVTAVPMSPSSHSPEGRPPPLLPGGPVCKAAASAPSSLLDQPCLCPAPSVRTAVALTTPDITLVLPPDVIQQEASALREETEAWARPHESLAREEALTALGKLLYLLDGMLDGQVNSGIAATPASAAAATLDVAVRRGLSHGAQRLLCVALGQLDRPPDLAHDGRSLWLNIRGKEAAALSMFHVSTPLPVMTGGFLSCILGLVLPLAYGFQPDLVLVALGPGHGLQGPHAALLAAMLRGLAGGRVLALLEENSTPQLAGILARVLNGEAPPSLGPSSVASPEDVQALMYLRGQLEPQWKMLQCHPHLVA

[10] = target: T5, Histone deacetylase 2 (Homo sapiens, UniProt Q92769); experiment: Inhibition of human HDAC2 using fluorogenic HDAC substrate incubated for 15 mins by fluorimetry
[11] = target: T6, Histone deacetylase 4 (Homo sapiens, UniProt P56524); experiment: Inhibition of human HDAC4 using fluorogenic HDAC substrate incubated for 30 mins by fluorimetry
[12] = target: Histone deacetylase 9 (Homo sapiens, UniProt Q9UKV0); experiment: Inhibition of human HDAC9 using fluorogenic HDAC substrate incubated for 30 mins by fluorimetry
[13] = target: Histone deacetylase 11 (Homo sapiens, UniProt Q96DB2); experiment: Inhibition of human HDAC11 using fluorogenic HDAC substrate incubated for 30 mins by fluorescence method
[14] = target: T2, Histone deacetylase 1; experiment: Inhibition of human HDAC1 using fluorogenic HDAC substrate incubated for 15 mins by fluorimetry
[15] = target: Histone deacetylase 3 (Homo sapiens, UniProt O15379); experiment: Inhibition of human HDAC3 using fluorogenic HDAC substrate incubated for 10 mins by spectrophotometric method
[16] = test system: CAL-27; experiment: Antiproliferative activity against human Cal-27 cells by MTT assay; type: functional, cell-based
[17] = target: T1, Protein deacetylase HDAC6; experiment: Inhibition of human HDAC6 using p53 fluorogenic peptide (379 to 382 residues) RHKKAc as substrate by fluorescence-based assay
[18] = target: T5, Histone deacetylase 2; experiment: Inhibition of human HDAC2 using p53 fluorogenic peptide (379 to 382 residues) RHKKAc as substrate by fluorescence-based assay
[19] = test system: A2780; experiment: Antiproliferative activity against human A2780 cells by MTT assay; type: functional, cell-based
[20] = target: T6, Histone deacetylase 4; experiment: Inhibition of human HDAC4 expressed in sf9 cells using Fluor deLys substrate by fluorescence method
[21] = target: T3, Histone deacetylase 5; experiment: Inhibition of human HDAC5 using Fluor deLys substrate by fluorescence method
[22] = target: T4, Polyamine deacetylase HDAC10; experiment: Inhibition of N-terminal Flag tagged- human HDAC10 (2 to 631 amino acids) expressed in baculovirus infected Sf9 cells using Fluor deLys substrate by fluorescence method
[23] = species: Homo sapiens; experiment: Selectivity ratio of IC50 for human HDAC1 to IC50 for human HDAC6
[24] = species: Homo sapiens; experiment: Selectivity ratio of IC50 for human HDAC4 to IC50 for human HDAC6

T2 sequence (Q13547 whole entry): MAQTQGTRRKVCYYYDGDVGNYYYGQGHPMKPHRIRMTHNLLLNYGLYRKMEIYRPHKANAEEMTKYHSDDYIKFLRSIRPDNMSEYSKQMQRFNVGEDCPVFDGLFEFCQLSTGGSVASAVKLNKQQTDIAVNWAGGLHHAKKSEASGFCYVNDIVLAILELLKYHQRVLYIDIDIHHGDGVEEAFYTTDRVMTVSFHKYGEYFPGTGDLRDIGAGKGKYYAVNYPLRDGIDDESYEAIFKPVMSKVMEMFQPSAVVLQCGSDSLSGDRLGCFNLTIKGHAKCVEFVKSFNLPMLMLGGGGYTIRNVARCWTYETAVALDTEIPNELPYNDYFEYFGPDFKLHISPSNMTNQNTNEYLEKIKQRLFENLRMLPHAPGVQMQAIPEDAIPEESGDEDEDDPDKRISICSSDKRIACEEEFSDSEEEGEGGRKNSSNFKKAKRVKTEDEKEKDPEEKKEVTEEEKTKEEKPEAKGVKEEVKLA
T3 sequence (Q9UQL6 whole entry): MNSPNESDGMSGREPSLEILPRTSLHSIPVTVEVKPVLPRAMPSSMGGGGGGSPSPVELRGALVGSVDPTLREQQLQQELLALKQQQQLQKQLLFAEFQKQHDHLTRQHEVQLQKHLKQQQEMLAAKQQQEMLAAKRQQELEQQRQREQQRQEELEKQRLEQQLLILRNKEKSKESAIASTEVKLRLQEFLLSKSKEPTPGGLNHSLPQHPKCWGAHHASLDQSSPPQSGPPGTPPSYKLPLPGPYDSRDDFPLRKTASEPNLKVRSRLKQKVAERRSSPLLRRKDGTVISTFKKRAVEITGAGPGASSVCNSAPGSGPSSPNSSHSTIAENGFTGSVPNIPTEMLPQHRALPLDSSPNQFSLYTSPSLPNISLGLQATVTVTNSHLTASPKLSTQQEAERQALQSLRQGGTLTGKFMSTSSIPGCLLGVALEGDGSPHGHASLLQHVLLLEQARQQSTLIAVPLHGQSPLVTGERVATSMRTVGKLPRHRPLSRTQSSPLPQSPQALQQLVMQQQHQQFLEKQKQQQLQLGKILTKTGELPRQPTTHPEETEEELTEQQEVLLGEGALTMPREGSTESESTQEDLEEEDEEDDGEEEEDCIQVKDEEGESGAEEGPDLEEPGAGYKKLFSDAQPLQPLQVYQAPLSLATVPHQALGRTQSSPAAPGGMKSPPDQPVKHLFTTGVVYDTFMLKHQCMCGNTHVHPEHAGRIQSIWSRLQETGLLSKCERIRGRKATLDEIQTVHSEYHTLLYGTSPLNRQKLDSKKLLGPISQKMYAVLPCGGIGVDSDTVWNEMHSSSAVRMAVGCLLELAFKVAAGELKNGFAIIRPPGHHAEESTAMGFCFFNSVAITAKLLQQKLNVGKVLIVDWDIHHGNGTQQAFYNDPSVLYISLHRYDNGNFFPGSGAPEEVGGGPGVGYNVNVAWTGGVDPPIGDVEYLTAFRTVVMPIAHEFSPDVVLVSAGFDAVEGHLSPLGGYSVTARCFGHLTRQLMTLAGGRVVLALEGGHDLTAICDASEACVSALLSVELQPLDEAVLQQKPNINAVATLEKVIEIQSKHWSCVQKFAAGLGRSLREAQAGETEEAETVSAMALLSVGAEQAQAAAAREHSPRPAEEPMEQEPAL
T5 sequence (Q92769 whole entry): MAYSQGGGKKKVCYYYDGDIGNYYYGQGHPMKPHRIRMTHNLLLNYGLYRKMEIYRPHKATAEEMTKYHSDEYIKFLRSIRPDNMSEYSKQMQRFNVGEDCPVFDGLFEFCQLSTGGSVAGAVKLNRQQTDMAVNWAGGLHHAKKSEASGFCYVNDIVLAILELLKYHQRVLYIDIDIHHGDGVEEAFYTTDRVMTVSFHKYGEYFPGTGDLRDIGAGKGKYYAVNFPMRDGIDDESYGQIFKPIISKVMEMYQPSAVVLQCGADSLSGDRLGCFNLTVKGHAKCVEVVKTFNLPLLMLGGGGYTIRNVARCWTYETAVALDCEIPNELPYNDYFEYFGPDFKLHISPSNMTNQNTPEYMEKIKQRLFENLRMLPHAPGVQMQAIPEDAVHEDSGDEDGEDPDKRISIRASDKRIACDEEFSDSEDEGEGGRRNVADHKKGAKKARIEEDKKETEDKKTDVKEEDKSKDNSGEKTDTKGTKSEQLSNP
T6 sequence (P56524 whole entry): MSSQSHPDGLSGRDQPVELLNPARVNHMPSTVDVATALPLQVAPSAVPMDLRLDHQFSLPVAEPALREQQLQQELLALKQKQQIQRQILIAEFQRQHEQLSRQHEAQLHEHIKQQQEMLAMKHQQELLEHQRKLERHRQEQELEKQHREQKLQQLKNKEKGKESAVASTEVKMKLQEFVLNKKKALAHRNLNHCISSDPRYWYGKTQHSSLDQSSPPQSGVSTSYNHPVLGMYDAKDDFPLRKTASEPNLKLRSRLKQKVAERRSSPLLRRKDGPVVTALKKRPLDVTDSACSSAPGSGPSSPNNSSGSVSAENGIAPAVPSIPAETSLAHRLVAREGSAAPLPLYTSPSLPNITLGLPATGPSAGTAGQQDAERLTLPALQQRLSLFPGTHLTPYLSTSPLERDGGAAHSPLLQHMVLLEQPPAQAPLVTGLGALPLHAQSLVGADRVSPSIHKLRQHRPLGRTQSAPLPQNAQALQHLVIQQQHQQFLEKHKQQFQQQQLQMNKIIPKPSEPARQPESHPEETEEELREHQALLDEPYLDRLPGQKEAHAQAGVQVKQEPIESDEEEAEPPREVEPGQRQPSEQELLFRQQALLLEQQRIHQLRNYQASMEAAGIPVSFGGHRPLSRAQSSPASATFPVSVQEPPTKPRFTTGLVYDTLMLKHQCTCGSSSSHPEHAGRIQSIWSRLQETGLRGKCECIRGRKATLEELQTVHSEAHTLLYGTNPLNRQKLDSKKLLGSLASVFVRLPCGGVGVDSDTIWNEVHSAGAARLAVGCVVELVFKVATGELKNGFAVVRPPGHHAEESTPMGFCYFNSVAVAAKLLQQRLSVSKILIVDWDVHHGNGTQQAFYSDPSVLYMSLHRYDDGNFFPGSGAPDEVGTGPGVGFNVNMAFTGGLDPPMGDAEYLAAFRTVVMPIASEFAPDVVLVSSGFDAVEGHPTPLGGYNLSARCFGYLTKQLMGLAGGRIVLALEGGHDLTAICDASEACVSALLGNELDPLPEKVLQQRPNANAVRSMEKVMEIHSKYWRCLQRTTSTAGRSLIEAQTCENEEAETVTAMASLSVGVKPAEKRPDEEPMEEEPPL
Sequence of Histone deacetylase 9 (Q9UKV0 whole entry): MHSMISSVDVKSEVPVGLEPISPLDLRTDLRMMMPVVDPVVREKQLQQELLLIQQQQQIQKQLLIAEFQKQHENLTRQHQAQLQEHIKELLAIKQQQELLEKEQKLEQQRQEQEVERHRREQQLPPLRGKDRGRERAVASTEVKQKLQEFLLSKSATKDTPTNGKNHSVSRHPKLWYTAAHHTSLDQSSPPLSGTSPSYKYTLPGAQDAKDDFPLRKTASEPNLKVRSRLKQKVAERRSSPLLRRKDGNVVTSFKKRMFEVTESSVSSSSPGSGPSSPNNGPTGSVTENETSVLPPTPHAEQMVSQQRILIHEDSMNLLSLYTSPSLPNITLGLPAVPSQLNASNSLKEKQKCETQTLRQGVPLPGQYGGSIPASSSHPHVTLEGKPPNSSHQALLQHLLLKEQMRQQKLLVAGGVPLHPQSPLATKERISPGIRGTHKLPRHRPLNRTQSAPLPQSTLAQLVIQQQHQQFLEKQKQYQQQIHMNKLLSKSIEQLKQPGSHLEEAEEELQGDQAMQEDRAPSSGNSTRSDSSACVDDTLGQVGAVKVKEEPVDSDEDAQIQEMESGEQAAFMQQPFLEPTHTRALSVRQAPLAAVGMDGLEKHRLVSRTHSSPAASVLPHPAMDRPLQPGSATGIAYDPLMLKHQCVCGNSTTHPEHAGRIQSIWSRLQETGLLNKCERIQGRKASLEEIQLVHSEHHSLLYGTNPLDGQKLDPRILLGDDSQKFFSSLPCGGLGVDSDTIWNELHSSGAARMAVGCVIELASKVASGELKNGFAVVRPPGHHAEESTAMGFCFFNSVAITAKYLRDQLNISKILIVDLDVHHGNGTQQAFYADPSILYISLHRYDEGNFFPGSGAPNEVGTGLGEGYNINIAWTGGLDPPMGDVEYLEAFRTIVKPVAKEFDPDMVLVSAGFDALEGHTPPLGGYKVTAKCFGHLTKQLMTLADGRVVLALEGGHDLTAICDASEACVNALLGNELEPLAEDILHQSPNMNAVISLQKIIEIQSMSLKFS
Sequence of Histone deacetylase 3 (O15379 whole entry): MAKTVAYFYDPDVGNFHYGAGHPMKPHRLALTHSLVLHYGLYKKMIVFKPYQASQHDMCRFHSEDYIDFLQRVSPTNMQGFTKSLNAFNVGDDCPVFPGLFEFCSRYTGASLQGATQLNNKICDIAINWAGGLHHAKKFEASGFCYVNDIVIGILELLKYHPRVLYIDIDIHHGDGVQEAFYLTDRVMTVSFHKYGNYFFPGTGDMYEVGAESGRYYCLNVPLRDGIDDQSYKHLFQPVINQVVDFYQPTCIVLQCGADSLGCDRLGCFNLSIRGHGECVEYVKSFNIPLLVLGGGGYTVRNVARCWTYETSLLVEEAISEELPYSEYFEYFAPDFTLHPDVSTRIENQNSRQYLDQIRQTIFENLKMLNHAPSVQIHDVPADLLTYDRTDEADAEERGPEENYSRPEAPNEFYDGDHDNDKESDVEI
Sequence of Histone deacetylase 11 (Q96DB2 whole entry): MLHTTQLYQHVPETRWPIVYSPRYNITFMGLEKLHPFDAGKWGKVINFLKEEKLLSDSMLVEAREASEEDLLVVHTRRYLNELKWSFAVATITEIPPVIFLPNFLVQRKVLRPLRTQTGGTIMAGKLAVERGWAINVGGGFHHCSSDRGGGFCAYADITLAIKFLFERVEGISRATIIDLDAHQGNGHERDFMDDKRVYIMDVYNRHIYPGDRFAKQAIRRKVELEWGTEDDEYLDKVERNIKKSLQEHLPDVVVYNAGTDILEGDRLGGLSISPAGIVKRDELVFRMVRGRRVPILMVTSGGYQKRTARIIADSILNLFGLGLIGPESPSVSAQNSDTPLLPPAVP

SMILES: COc1cc(C(=O)OCCCCCCCOC(=O)c2ccc(O)c(OC)c2)ccc1O
IC50 [5]: 200 nM

SMILES: O=C(NO)c1ccc(Cn2c3c(c4ccccc42)S(=O)(=O)CC3)cc1
IC50 [6]: 1000 nM | IC50 [7]: 1000 nM | IC50 [8]: 8.2 nM | IC50 [9]: > 5000 nM | IC50 [10]: > 5000 nM | IC50 [11]: 1000 nM | IC50 [12]: 100 nM | IC50 [13]: > 5000 nM | IC50 [14]: > 5000 nM | IC50 [15]: > 5000 nM

SMILES: O=C(NO)c1ccc(Cn2c3c(c4ccccc42)CS(=O)(=O)CC3)cc1
Ratio IC50 [23]: 5790 | Ratio IC50 [24]: 842

More lines, main results first:

GI50 [1]: 104000 nM | IC50 [3]: 3970 nM | IC50 [4]: 100000 nM
SMILES: COC(=O)[C@H](Cc1ccccn1)NC(=O)CCCCCCC(=O)NO
Ratio IC50 [2]: 25

IC50 [3]: 4010 nM
SMILES: COC(=O)[C@@H](Cc1ccccn1)NC(=O)CCCCCCC(=O)NO
Ratio IC50 [2]: 20

IC50 [17]: 1.59 nM | IC50 [18]: 200 nM | IC50 [19]: 340 nM
SMILES: CN(C)c1ccc(C(=O)N(CC(=O)NC2CCCCC2)Cc2ccc(C(=O)NO)cc2)cc1
IC50 [16]: 2040 nM

IC50 [20]: 330 nM | IC50 [21]: 400 nM | IC50 [22]: 420 nM
SMILES: CN(C)c1cccc2c(S(=O)(=O)NCCCCCC(=O)NO)cccc12
